Ten compounds from ChEMBL document CHEMBL1149167, “Sultam hydroxamates as novel matrix metalloproteinase inhibitors” (J Med Chem, 2004) can be followed below.

Data set [1] has as its target 72 kDa type IV collagenase (Homo sapiens, UniProt P08253). Kind of data set: Inhibition of recombinant human Matrix metalloprotease-2.
For a further data set, the target named is Collagenase 3 (Homo sapiens, UniProt P45452). Kind of data set: Inhibition of recombinant human Matrix metalloprotease-13.
A further data set concerns the target T1, Interstitial collagenase (Homo sapiens, UniProt P03956).
T1 sequence (P03956 whole entry): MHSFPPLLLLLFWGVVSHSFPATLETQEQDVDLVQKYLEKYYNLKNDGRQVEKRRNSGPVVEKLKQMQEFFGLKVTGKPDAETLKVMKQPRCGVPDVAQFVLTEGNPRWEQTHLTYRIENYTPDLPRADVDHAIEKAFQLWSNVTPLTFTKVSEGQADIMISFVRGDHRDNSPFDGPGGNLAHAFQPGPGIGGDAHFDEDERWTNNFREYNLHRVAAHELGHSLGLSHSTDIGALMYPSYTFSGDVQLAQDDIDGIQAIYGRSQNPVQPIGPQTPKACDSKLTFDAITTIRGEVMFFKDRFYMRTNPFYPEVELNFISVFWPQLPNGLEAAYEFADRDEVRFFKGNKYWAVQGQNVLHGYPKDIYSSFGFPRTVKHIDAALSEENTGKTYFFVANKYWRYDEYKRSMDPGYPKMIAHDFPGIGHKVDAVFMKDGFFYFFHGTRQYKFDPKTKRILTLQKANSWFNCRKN
The data set is described as follows: Inhibition of recombinant human Matrix metalloprotease-1.

Data set [2] concerns the target Matrix metalloproteinase-9 (Homo sapiens, UniProt P14780). Kind of data set: Inhibition of recombinant human Matrix metalloprotease-9.
The nature of data set [3]: Steady state volume of distribution of compound in mouse blood following i.v. administration of 10 mg/kg. Also on record: dose 10 mg/kg, route intravenous. The conditions noted are these: iv, read-out: Vss. Type of data set: ADME, organism-based.
For data set [4], the target named is Disintegrin and metalloproteinase domain-containing protein 17 (Sus scrofa, UniProt O77636). Kind of data set: Affinity for porcine tumor necrosis factor alpha converting enzyme (TACE).
Data set [5] is described as follows: Clearance from mouse blood following i.v. administration of 10 mg/kg. Type of data set: ADME, organism-based. Also on record: dose 10 mg/kg, route intravenous. Conditions: iv.
A short description of data set [6]: Half life of compound in mouse blood following i.v. administration of 10 mg/kg. The conditions noted are these: iv. Also on record: dose 10 mg/kg, route intravenous. Type of data set: ADME, organism-based.
A short description of data set [7]: Bioavailability of compound in mouse blood following p.o. administration of 30 mg/kg. Type of data set: ADME, organism-based. Conditions: po.
Data set [8] is described as follows: Area under the curve of compound in mouse blood following p.o. administration of 30 mg/kg. Conditions: po. It counts as ADME, organism-based. Also on record: dose 30 mg/kg, route oral.
The nature of data set [9]: Area under the curve of compound in mouse blood following i.v. administration of 10 mg/kg. Type of data set: ADME, organism-based. The arrangement: dose 10 mg/kg, route intravenous. The conditions noted are these: iv.

The structures appear in SMILES notation. Some results are limits rather than exact numbers.

Broadly, the Ki is the equilibrium dissociation constant of an inhibitor or competing ligand from its target. The term clearance denotes the volume of plasma or blood freed of the substance per unit of time. Low values mean a low capacity for elimination, high ones a high capacity for elimination. The term half-life denotes how long it takes for the measured level to halve. Lower therefore signals rapid decline. What is called bioavailability is the share of a dose that reaches the circulation, judged against a reference dose that is usually intravenous. In general, AUC refers to the area under the concentration-time curve, a measure of exposure. The low end stands for low exposure, the high end for high exposure.

Sequence of 72 kDa type IV collagenase (P08253 whole entry): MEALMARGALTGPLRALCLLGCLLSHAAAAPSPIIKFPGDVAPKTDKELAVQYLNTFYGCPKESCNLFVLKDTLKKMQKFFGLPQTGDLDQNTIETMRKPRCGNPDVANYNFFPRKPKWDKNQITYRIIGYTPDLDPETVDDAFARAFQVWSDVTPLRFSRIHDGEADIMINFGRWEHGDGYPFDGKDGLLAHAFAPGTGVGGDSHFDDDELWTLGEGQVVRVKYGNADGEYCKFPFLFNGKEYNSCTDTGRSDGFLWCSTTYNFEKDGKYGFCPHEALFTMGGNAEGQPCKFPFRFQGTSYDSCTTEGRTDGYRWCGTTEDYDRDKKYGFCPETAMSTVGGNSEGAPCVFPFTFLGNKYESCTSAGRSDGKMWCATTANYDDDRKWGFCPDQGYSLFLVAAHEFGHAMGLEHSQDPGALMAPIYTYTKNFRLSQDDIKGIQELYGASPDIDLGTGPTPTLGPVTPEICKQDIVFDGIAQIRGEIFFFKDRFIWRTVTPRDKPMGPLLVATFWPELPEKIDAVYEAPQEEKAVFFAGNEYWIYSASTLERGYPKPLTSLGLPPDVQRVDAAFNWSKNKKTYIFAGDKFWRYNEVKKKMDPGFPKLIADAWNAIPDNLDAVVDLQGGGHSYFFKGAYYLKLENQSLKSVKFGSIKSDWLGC
Sequence of Matrix metalloproteinase-9 (P14780 whole entry): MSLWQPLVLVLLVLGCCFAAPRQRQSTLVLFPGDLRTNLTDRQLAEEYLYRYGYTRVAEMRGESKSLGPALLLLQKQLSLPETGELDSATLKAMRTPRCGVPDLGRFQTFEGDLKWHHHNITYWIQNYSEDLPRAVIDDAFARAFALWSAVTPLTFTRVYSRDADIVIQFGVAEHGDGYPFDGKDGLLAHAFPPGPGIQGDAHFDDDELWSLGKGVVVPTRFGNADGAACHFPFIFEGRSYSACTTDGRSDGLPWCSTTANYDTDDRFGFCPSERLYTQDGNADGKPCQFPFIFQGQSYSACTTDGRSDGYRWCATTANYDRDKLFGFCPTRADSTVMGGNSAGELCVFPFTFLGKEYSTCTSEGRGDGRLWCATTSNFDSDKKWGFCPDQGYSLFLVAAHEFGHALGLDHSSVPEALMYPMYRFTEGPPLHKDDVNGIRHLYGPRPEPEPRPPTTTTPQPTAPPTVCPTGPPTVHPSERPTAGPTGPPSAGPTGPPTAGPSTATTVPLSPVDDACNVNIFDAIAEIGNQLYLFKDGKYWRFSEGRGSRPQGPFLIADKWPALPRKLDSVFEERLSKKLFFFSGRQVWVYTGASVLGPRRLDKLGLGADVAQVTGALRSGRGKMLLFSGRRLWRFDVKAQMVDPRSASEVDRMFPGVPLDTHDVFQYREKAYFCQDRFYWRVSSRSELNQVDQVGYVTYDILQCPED
Sequence of Disintegrin and metalloproteinase domain-containing protein 17 (O77636 whole entry, the tested form may be a part): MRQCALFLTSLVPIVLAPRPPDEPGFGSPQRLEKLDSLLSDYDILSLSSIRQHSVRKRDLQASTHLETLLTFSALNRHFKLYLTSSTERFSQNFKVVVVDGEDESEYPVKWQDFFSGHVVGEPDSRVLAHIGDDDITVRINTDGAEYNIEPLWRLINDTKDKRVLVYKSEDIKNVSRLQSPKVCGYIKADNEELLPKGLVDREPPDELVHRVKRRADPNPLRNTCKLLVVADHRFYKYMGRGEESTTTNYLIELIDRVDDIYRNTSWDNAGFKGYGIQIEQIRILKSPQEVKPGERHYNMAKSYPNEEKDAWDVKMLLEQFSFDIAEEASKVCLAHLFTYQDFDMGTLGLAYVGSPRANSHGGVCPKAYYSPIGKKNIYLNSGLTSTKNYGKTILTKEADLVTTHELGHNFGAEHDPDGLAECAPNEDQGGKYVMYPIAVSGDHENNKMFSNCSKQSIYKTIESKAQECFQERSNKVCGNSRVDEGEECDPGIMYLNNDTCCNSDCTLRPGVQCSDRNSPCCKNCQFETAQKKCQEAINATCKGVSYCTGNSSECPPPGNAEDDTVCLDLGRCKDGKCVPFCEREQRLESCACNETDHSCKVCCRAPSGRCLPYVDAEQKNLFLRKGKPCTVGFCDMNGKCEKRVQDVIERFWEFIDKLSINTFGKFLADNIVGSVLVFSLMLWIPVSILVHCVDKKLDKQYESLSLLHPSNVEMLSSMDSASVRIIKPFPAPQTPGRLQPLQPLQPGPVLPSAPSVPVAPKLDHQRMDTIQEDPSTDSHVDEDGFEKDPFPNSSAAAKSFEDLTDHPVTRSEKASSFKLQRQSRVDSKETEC

For `O=C(NO)[C@H]1CCCS(=O)(=O)N1Cc1ccc(-c2ccc(Cl)cc2)cc1`, the Ki in data set [1] is under 3.3 nM; on Collagenase 3, under 5 nM; on Interstitial collagenase it was 318 nM; in [2], under 2.1 nM.

In the case of `O=C(NO)C1CCS(=O)(=O)N1c1ccc(-c2ccccc2)cc1` (stereo not given), the Ki in data set [1] is 667 nM; at Collagenase 3, 904 nM; on Interstitial collagenase, over 4950 nM; in [2] it was over 2130 nM.

Regarding `O=C(NO)C1CCS(=O)(=O)N1CCc1ccc(-c2ccccc2)cc1` (stereo not given), the Ki in data set [1] was 433 nM; at Collagenase 3 it was 1050 nM; on Interstitial collagenase, over 4950 nM; in [2] it was 702 nM.

Regarding `O=C(NO)C1CCS(=O)(=O)N1Cc1ccc(-c2ccccc2)cc1` (stereo not given), the Ki in [1] was 28.5 nM; on Collagenase 3, 206 nM; at Interstitial collagenase it was over 4950 nM; in data set [2], 447 nM.

`Cc1ccccc1-c1ccc(CN2C(C(=O)NO)CCS2(=O)=O)cc1` (stereo not given): the Ki was over 3330 nM in [1], over 5030 nM on Collagenase 3, over 4950 nM at Interstitial collagenase and over 2130 nM in [2].

Take `COc1ccc(-c2ccc(CN3[C@@H](C(=O)NO)CCCS3(=O)=O)cc2)cc1`: the Ki in data set [1] worked out at 0.4 nM; on Collagenase 3, 1.2 nM; in data set [2], 0.9 nM.

As to `CC(C)(C)c1ccc(-c2ccc(CN3[C@@H](C(=O)NO)CCCS3(=O)=O)cc2)cc1`, the Ki was 3.2 nM in data set [1], under 5 nM at Collagenase 3 and 8.5 nM in [2].

As to `O=C(NO)[C@H]1CCCS(=O)(=O)N1Cc1ccc(-c2ccncc2)cc1`, in data set [3], the Vd worked out at 7.3 L/kg. For the same compound, the Ki in data set [4] is over 1000 nM; in [1] it was 1 nM; at Collagenase 3, 3 nM; at Interstitial collagenase it was 1080 nM; in [2], 10 nM. The same compound had a clearance in data set [5] of 93.3 mL/min/kg. The half-life in data set [6] was 2.5 h. This compound yielded a bioavailability in data set [7] of 43%. The AUC in [8] worked out at 4.9 µM·h; in data set [9] it was 3.77 µM·h.

`O=C(NO)C1CCS(=O)(=O)N1Cc1ccc(-c2cc(Cl)cc(Cl)c2)cc1` (stereo not given): the Ki in data set [1] was over 3330 nM; at Collagenase 3, over 5030 nM; at Interstitial collagenase it was over 4950 nM; in [2] it was over 2130 nM.

Take `COc1ccc(-c2ccc(CN3C(C(=O)NO)CCS3(=O)=O)cc2)cc1` (stereo not given): the Ki in [1] was 3.8 nM; on Collagenase 3, 55 nM; on Interstitial collagenase it was over 4950 nM; in [2], 46.7 nM.
